According to publication PMC5913645, “Methyl phenlactonoates are efficient strigolactone analogs with simple structure” (Journal of Experimental Botany, 2017):
Entries after “also recorded” stand apart in the source; their conditions may differ.

How the values were obtained:
Arabidopsis seedlings [1] = assay: Arabidopsis lateral root density; assay type: in vivo; details: 1.0 μM, 8-day-old seedlings
Procedure: Sterilized Arabidopsis seeds were sown on half-strength MS (with 0.5% sucrose+1% agar, 0.5 g l^−1 MES, pH 5.7) plates supplemented with GR24 or MPs (at 1.0 μM). Plates were stored at 4 °C in darkness for 3 d and then vertically grown at 22 °C in a Percival incubator under long day condition (16 h at 22 °C/8 h at 16 °C day/night, 60% relative humidity, 60–70 μmol m^−2 s^−1 white light) for 8 d. For determining the effect on lateral root density and primary root length, at least 30 seedlings were measured using ImageJ software after scanning roots.

Arabidopsis seedlings [2] = assay: Arabidopsis hypocotyl elongation assay; assay type: in vivo; details: 1.0 μM, continuous red light
Procedure: Sterilized Arabidopsis seeds were sown on half-strength MS (with 0.5% sucrose+1% agar, 0.5 g l^−1 MES, pH 5.7) plates supplemented with MPs or GR24 (at 1.0 μM). Plates were stored at 4 °C in darkness for 3 d. To initiate germination, plates were exposed to continuous white light for 24 h, then transferred to continuous monochromatic red light (20 μmol m^−2 s^−1, 22 °C) conditions for another 4 d. For hypocotyl length measurement, at least 30 seedlings were measured using the freely available ImageJ software (http://rsbweb.nih.gov/ij/) after taking digital photographs. A monochromatic red light source was applied as described previously ([Wu and Yang, 2010]). Light flow rates were measured using a Li250 quantum photometer (Li-Cor, Lincoln, NE, USA).

ShHTL7 = biological target: T1, ShHTL7 (Striga hermonthica, UniProt A0A0M3PNA2); assay: Intrinsic tryptophan fluorescence assay, ShHTL7; assay type: binding
T1 sequence (A0A0M3PNA2 1-271): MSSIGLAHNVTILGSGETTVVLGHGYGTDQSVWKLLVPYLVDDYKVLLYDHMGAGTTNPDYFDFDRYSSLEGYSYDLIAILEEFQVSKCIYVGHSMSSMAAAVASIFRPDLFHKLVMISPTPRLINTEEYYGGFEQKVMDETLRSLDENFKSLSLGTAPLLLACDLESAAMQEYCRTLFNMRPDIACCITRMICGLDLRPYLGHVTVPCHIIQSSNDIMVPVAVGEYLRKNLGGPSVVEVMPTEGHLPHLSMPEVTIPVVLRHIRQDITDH
Excerpt: Striga hermonthica ShHTL7 cDNA was used, GenBank accession KR013127, kindly provided by Tsuyoshi Ota, The University of Tokyo, Japan. Arabidopsis D14 (AtD14) cDNA, GenBank accession AY097402, was synthesized and cloned into pUC57 (GenScript). ShHTL7 and OsD14 cDNAs were amplified by RT-PCR using the primers shown in Supplementary Table S2, digested with BamHI and XhoI, and ligated into BamHI/XhoI-digested pGEX-6P-1 expression vector (GE Healthcare). […] The plasmids were then transformed into E. coli BL21 (DE3) cells. The cells were grown in LB broth containing ampicillin ([…]), incubated at 37 °C until OD600 of 0.6 and induced with 0.1 mM isopropyl-β-D-thiogalactopyranoside at 16 °C for 16 h. Harvested cells were resuspended in lysis buffer: 50 mM Tris–HCl (pH 8.0), 200 mM NaCl, 0.5% Tween-20 and 2 mM dithiothreitol (DTT). After sonication on ice for 10 min, the lysate was centrifuged at 75 000 g for 30 min at 4 °C. Supernatant was allowed to bind to glutathione–sepharose beads (GE Healthcare) for 2 h at 4 °C, washed 3 times with buffer (50 mM Tris-HCl (pH 8.0), 200 mM NaCl, 2 mM DTT), and eluted by cleaving the GST moiety with PreScission™ Protease (GE Healthcare) at 4 °C overnight. […]

[3] = test system: artificially infested soil and pearl millet as a host; assay: Trial in Burkina Faso, boxes with artificially infested soil; assay type: in vivo; details: 1 × 1 m^2 wooden boxes, to be published
Excerpt: This activity was around 17 times weaker than that of GR24, pointing to MP1 as a suitable candidate for the suicidal germination approach. Very recently, we have evaluated the activity of MP1 in a trial conducted in Burkina Faso, in which we used 1 × 1 m^2 wooden boxes filled with artificially infested soil and pearl millet as a host. […] Apart from these three compounds, we observed lower germination activity with P. ramosa seeds than with those of S. hermonthica.

P. ramosa seeds = assay: P. ramosa seed germination bioassay; assay type: in vivo, Phelipanche ramosa; details: 1.0 μM
Procedure: Parasitic weed seeds’ (S. hermonthica and P. ramosa) germination activity was studied as described previously ([Jamil et al., 2012]). Six pre-conditioned seed discs were placed in a 90 mm Petri dish containing a filter paper ring wetted with 0.9 ml sterile MilliQ water. Then 50 μl of SL analog solution (10^–5–10^–12 M) was applied on each of the six discs, for each concentration. GR24 solutions with equal concentrations and sterile MilliQ water were included as a positive and negative control, respectively. After application, seeds of S. hermonthica and P. ramosa were incubated in dark at 30 °C for 2 d and at 25 °C for 4 d, respectively. Germination (seeds with radicle emerging through the seed coat) was scored under a binocular microscope, and germination rate (%) was calculated.

rice d3 mutant = assay: Rice micro tillering bioassay, d3 mutant; assay type: in vivo; details: 2.5 μM, hydroponic culture; average of four tillers per plant in treated and untreated samples
Procedure: Rice seeds (WT, d3, d10) were surface-sterilized by washing with 70% ethanol for 1 min and then with 2.5% sodium hypochlorite for 15 min. Seeds were then rinsed thoroughly with sterile MilliQ water and incubated in water for 2 d at 30 °C in the dark. Pre-germinated seeds were transferred to filter papers containing half-strength MS medium in 90 mm Petri dishes and incubated at 30 °C under fluorescent white light (130–180 μmol m^−2 s^−1) for 1 week. Seven-day-old seedlings were transferred to 50 ml falcon tubes (one seedling per tube) containing modified half-strength Hoagland nutrient solution and grown in greenhouse. Plants were treated with MPs at 2.5 μM to 2.5 × 10^–7 μM, using GR24 as positive control. The compounds were applied six times, twice a week. Number of tillers per plant, plant height and fresh biomass were measured at final harvest.

| SMILES | reduction of lateral root number/density (Arabidopsis seedlings [1]) | inhibition of hypocotyl growth (Arabidopsis seedlings [2]) | Kd (ShHTL7) [µM] | germination activity in soil box trial [3] | P. ramosa germination activity (P. ramosa seeds) | high-tillering phenotype of SL-insensitive d3 mutant (rice d3 mutant) |
| --- | --- | --- | --- | --- | --- | --- |
| COC(=O)/C(=C/OC1C=C(C)C(=O)O1)c1ccc(Cl)cc1 (centres unmarked) [MP7] | slightly more active than GR24 | stronger inhibitory effect than GR24 | 1.15 ± 0.31 |  |  |  |
| COC(=O)/C(=C/OC1C=C(C)C(=O)O1)c1ccc([N+](=O)[O-])cc1 (centres unmarked) [MP1, (E)-methyl 3-(4-methyl-5-oxo-2,5-dihydrofuran-2-yloxy)-2-(4-nitrophenyl)acrylate] | most efficient compound and showed an activity higher than that of GR24 |  |  | significantly higher germination activity than GR24 | much higher activity; also recorded: quite similar to that of GR24 |  |
| CC1=CC(OC=C2C(=O)OC3c4ccccc4CC23)OC1=O (centres unmarked) [GR24, reference compound] |  |  | 0.44 ± 0.21 |  |  | neither MPs nor GR24 could restore the high-tillering phenotype |
